Data taken from patent US4847300A, “Use of alpha-2I selective adrenergic receptor agonists in memory enhancement” (priority 1986, dated 1989).
Read-outs that look alike come from different tables or passages of the source.

Assays:
[1] = test system: aged monkeys; test: blood pressure study in awake chaired aged monkeys; type: in vivo, rhesus monkeys; conditions: for drop in systolic blood pressure: at the high doses optimal for memory improvement; for Systolic Blood Pressure, change vs placebo control: mean
Protocol: In order to measure blood pressure in the awake, behaving monkey, three aged animals were adapted to primate chair restraint for several weeks. Blood pressure was measured using a pediatric digital blood pressure monitor. Each day the animals were […] immediately injected with the drug or saline. Fifteen minutes later, three blood pressure measurements were taken. […] Following memory testing, three more blood pressure measurements were taken before the monkey was returned to its home cage. The average blood pressure response before and after memory testing was calculated; drug response was compared to the previous response on saline Drug administration was initiated only after a stable blood pressure baseline was apparent.

[2] = test system: alpha-2R subtype; conditions: alpha-2R vs alpha-2I
Description: Receptor binding data provides evidence for two distinct alpha-2 receptor sub-types, C. […] One subtype binds with high affinity to the antagonist idazoxan, and is referred to as the "alpha-2I subtype"; the other subtype binds with high affinity to both idazoxan and to the antagonist, rauwolscine, and is referred to as the "alpha-2R subtype".

[3] = molecular target: alpha-2R subtype; conditions: cited from earlier work
[4] = molecular target: alpha-2I subtype; conditions: second figure of the alpha-2R/alpha-2I Ki ratio; cited from earlier work
[5] = test system: aged monkeys; test: variable delayed response task (spatial working memory) in aged monkeys; conditions: for average optimal dose for improving memory: aged monkeys; for average optimal dose for improving memory / Optimal dose: equimolar clonidine dose; for Delayed Response Performance (% change from placebo control): mean; for aged monkeys with improved memory: applicants' experiments; for Percent Improvement: at individual optimal dose; for Optimal dose: i.m.; for dose range in which effective: memory improvement, summary statement
[6] = test system: aged monkeys; conditions: for Sedation Score (0-IV): mean
Description: Sedation was rated using a 5 point scale where 0=normal level of arousal, I=quiet, II=sedated, III=intermittent sleeping and IV=too sedated to test.

[7] = test system: rhesus monkeys; conditions: catecholamine-depleted association cortex; cited from earlier work
[8] = test system: aged monkeys; conditions: early experiments, Science 230, 1273 (1985); cited from earlier work
[9] = test system: aged monkeys; conditions: 0.01 to 0.09 mg/kg; background; cited from earlier work
[10] = test system: Korsakoff patients; conditions: about 0.01 to 0.02 mg/kg/day for two weeks; cited from earlier work
[11] = test system: Alzheimer patients; conditions: acute administration; study was terminated; cited from earlier work
[12] = clinical blood pressure studies; cited from earlier work
[13] = dose .0001 mg/kg i.m. (equimolar clonidine dose)
[14] = dose .001 mg/kg i.m. (equimolar clonidine dose)
[15] = dose .01 mg/kg i.m. (equimolar clonidine dose)
[16] = dose .05 mg/kg i.m. (equimolar clonidine dose)

For C=CCN1CCc2nc(N)sc2CC1 [BHT-920], the “drop in systolic blood pressure” value [1] was “greater than 50 mm Hg”, the “Systolic Blood Pressure, change vs placebo control” value (shortened to “Systolic Blood Pressure, change”) ([1]; dose .0001 mg/kg i.m.) was -9 mm Hg and the “Systolic Blood Pressure, change” value ([1]; dose .001 mg/kg i.m.) was -8 mm Hg. For the same compound, the “Systolic Blood Pressure, change” value ([1]; dose .01 mg/kg i.m.) was -37 mm Hg, the “Systolic Blood Pressure, change” value ([1]; dose .05 mg/kg i.m.) was greater than -50 mm Hg and the “hypotensive effects compared with the other agonists” value ([1]; monkey #445, FIG. 3) was “very similar to those of clonidine”. For the same compound, the “selectivity for the alpha-2R subtype” value [2] was “two times more selective”, the Ki [3] was 62.2 nM and the Ki [4] was 138 nM. The “average optimal dose for improving memory” value (shortened to “average optimal dose”) [5] was 70 µg/kg, the “Delayed Response Performance (% change from placebo control)” value [5, 13] was 0% and the “Delayed Response Performance (% change from placebo control)” value [5, 14] was -3%. For the same compound, the “Delayed Response Performance (% change from placebo control)” value [5, 15] was “+9%”, the “Delayed Response Performance (% change from placebo control)” value [5, 16] was “+8%” and the “Delayed Response Performance (% change from placebo control)” value ([5]; dose .08 mg/kg i.m. (equimolar clonidine dose)) was “+15%”.
In the case of Clc1cccc(Cl)c1N=C1NCCN1 [Clonidine, clonidine], the “drop in systolic blood pressure” value [1] is reported as “greater than 50 mm Hg”, the “Systolic Blood Pressure, change” value ([1]; dose .0001 mg/kg i.m.) is reported as -23 mm Hg and the “Systolic Blood Pressure, change” value ([1]; dose .001 mg/kg i.m.) is reported as -8 mm Hg. The “Systolic Blood Pressure, change” value ([1]; dose .01 mg/kg i.m.) was -32 mm Hg, the “Systolic Blood Pressure, change” value ([1]; dose .05 mg/kg i.m.) was greater than -50 mm Hg and the “Sedation Score (0-IV)” value ([6]; dose .0001 mg/kg i.m.) was 0. The “Sedation Score (0-IV)” value ([6]; dose .001 mg/kg i.m.) was 0, the “Sedation Score (0-IV)” value ([6]; dose .01 mg/kg i.m.) was “I” and the “Sedation Score” value ([6]; monkey #121, at individual optimal dose) was 0. For the same compound, the “Sedation Score” value ([6]; monkey #445, at individual optimal dose) was “I”, the “Sedation Score” value ([6]; monkey #449, at individual optimal dose) was 0 and the Ki [3] was 27.7 nM. The Ki [4] was 38.1 nM, the “effect on behavioral deficit in spatial delayed alternation” value (“effect on behavioral deficit” below) [7] was “pharmacologically reversed” and the “aged monkeys with improved memory” value [8] was 5/5. For the same compound, the “side effects at memory-enhancing doses” value [9] was “profound hypotension and sedation”, the “effect on memory performance” value [10] was “improved memory performance” and the side effects [11] was “severe hypotension and sedation”. For the same compound, the “average optimal dose” value [5] was 50 µg/kg, the “aged monkeys with improved memory” value [5] was 8 and the effect on memory ([5]; dose 0.0001 to 0.01 mg/kg) was “often impaired memory”. The “Delayed Response Performance (% change from placebo control)” value [5, 13] was -6%, the “Delayed Response Performance (% change from placebo control)” value [5, 14] was “+3%” and the “Delayed Response Performance (% change from placebo control)” value [5, 15] was “+6%”. For the same compound, the “Delayed Response Performance (% change from placebo control)” value [5, 16] was “+12%”, the “Percent Improvement” value ([5]; monkey #107) was 27% and the Optimal dose ([5]; monkey #107) was 10 µg/kg. For the same compound, the “Percent Improvement” value ([5]; monkey #113) was 30%, the Optimal dose ([5]; monkey #113) was 50 µg/kg and the “Percent Improvement” value ([5]; monkey #121) was 17%. For the same compound, the Optimal dose ([5]; monkey #121) was 5 µg/kg, the “Percent Improvement” value ([5]; monkey #124) was 23% and the Optimal dose ([5]; monkey #124) was 40 µg/kg. The “Percent Improvement” value ([5]; monkey #343) was 30%, the Optimal dose ([5]; monkey #343) was 200 µg/kg and the “Percent Improvement” value ([5]; monkey #444) was 25%. For the same compound, the Optimal dose ([5]; monkey #444) was 30 µg/kg, the “Percent Improvement” value ([5]; monkey #445) was 18% and the Optimal dose ([5]; monkey #445) was 40 µg/kg. The “Percent Improvement” value ([5]; monkey #446) was 17%, the Optimal dose ([5]; monkey #446) was 80 µg/kg and the “Percent Improvement” value ([5]; monkey #447) was 23%. The Optimal dose ([5]; monkey #447) was 60 µg/kg, the “Percent Improvement” value ([5]; monkey #448) was 30% and the Optimal dose ([5]; monkey #448) was 70 µg/kg. The “Percent Improvement” value ([5]; monkey #449) was 23% and the Optimal dose ([5]; monkey #449) was 1 µg/kg.
With N=C(N)N/N=C/c1c(Cl)cccc1Cl [Guanabenz, guanabenz] the “hypotensive effects compared with the other agonists” value ([1]; rhesus monkey, in vivo) was “more hypotensive side effects than guanfacine, but fewer side effects than clonidine”, the “Sedation Score (0-IV)” value ([6]; dose .00000005 mg/kg i.m.) was 0 and the “Sedation Score (0-IV)” value ([6]; dose .00001 mg/kg i.m.) was 0. For the same compound, the “Sedation Score (0-IV)” value ([6]; dose .0001 mg/kg i.m.) was 0, the “Sedation Score (0-IV)” value ([6]; dose .001 mg/kg i.m.) was 0 and the “Sedation Score (0-IV)” value ([6]; dose .01 mg/kg i.m.) was 0. For the same compound, the “Sedation Score (0-IV)” value ([6]; dose .05 mg/kg i.m.) was “I”, the Ki [3] was 36.7 nM and the Ki [4] was 5.3 nM. The “Delayed Response Performance (% change from placebo control)” value ([5]; dose .00000005 mg/kg i.m. (equimolar clonidine dose)) was “+8%”, the “Delayed Response Performance (% change from placebo control)” value ([5]; dose .00001 mg/kg i.m. (equimolar clonidine dose)) was -1% and the “Delayed Response Performance (% change from placebo control)” value [5, 13] was “+1%”. For the same compound, the “Delayed Response Performance (% change from placebo control)” value [5, 14] was -2%, the “Delayed Response Performance (% change from placebo control)” value [5, 15] was “+7%” and the “Delayed Response Performance (% change from placebo control)” value [5, 16] was “+7%”. For the same compound, the “dose range in which effective” value [5] was “picogram/kg range” and the “doses at which memory improved” value ([5]; monkey #445, FIG. 3) was 5e-05 to 10 µg/kg.
With N=C(N)NC(=O)Cc1c(Cl)cccc1Cl [Guanfacine, guanfacine] the “Systolic Blood Pressure, change” value ([1]; dose .0001 mg/kg i.m.) was “+3 mm Hg”, the “Systolic Blood Pressure, change” value ([1]; dose .001 mg/kg i.m.) was “+6 mm Hg” and the “Systolic Blood Pressure, change” value ([1]; dose .01 mg/kg i.m.) was -11 mm Hg. For the same compound, the “Systolic Blood Pressure, change” value ([1]; dose .05 mg/kg i.m.) was -21 mm Hg, the “average change in systolic blood pressure” value ([1]; low, memory-improving doses) was “+6 mm Hg” and the “Sedation Score” value ([6]; rhesus monkey, in vivo) was 0. The sedation scores ([6]; rhesus monkey, in vivo) was 0, the Ki [3] was 340 nM and the Ki [4] was 22.6 nM. For the same compound, the “potency relative to clonidine” value [12] was 1/10, the “average optimal dose” value [5] was “about 0.001 mg/kg” and the “aged monkeys with improved memory” value [5] was 11/11. For the same compound, the “Delayed Response Performance (% change from placebo control)” value [5, 13] was “+9%”, the “Delayed Response Performance (% change from placebo control)” value [5, 14] was “+10%” and the “Delayed Response Performance (% change from placebo control)” value [5, 15] was “+10%”. For the same compound, the “Delayed Response Performance (% change from placebo control)” value [5, 16] was -6%, the “duration of memory effects” value ([5]; low doses) was “up to four days” and the “dose range in which effective” value [5] was “nanogram/kg range”. The “Percent Improvement” value ([5]; monkey #107) was 20%, the Optimal dose ([5]; monkey #107) was 10 µg/kg and the “Percent Improvement” value ([5]; monkey #113) was 23%. The Optimal dose ([5]; monkey #113) was 0.001 µg/kg, the “Percent Improvement” value ([5]; monkey #121) was 10% and the Optimal dose ([5]; monkey #121) was 0.001 µg/kg. The “Percent Improvement” value ([5]; monkey #124) was 18%, the Optimal dose ([5]; monkey #124) was 0.1 µg/kg and the “Percent Improvement” value ([5]; monkey #343) was 13%. For the same compound, the Optimal dose ([5]; monkey #343) was 0.01 µg/kg, the “Percent Improvement” value ([5]; monkey #444) was 13% and the Optimal dose ([5]; monkey #444) was 10 µg/kg. For the same compound, the “Percent Improvement” value ([5]; monkey #445) was 20%, the Optimal dose ([5]; monkey #445) was 1 µg/kg and the “Percent Improvement” value ([5]; monkey #446) was 10%. The Optimal dose ([5]; monkey #446) was 10 µg/kg, the “Percent Improvement” value ([5]; monkey #447) was 20% and the Optimal dose ([5]; monkey #447) was 1 µg/kg. The “Percent Improvement” value ([5]; monkey #448) was 23%, the Optimal dose ([5]; monkey #448) was 0.01 µg/kg and the “Percent Improvement” value ([5]; monkey #449) was 20%. The Optimal dose ([5]; monkey #449) was 1 µg/kg.
For N[C@@H](Cc1ccc(O)c(O)c1)C(=O)O [L-dopa], the “effect on behavioral deficit” value [7] is given as “pharmacologically reversed”.
For CN1CCc2cccc3c2[C@H]1Cc1ccc(O)c(O)c1-3 [apomorphine], the “effect on behavioral deficit” value [7] is listed as “pharmacologically reversed”.
